# From patent US5434246A, “Parathyroid hormone derivatives” (Takeda Chemical Industries, Ltd., priority 1992, dated 1995)
# Square brackets hold non-standard residues; d marks the D form. Peptide text beside a SMILES is read from it. hCit = NC(=O)NCCCC[C@H](N)C(=O)O; Orn = NCCC[C@H](N)C(=O)O
# Biological target: T1, PTH receptor (Mus musculus, UniProt P41593)
# T1 construct: a mouse cranial bone-derived osteoblast-like cell strain, MC3T3-EI cells; endogenous in cells; host or cells: MC3T3-E1 mouse osteoblast-like cells
# T1 sequence (P41593 27-591): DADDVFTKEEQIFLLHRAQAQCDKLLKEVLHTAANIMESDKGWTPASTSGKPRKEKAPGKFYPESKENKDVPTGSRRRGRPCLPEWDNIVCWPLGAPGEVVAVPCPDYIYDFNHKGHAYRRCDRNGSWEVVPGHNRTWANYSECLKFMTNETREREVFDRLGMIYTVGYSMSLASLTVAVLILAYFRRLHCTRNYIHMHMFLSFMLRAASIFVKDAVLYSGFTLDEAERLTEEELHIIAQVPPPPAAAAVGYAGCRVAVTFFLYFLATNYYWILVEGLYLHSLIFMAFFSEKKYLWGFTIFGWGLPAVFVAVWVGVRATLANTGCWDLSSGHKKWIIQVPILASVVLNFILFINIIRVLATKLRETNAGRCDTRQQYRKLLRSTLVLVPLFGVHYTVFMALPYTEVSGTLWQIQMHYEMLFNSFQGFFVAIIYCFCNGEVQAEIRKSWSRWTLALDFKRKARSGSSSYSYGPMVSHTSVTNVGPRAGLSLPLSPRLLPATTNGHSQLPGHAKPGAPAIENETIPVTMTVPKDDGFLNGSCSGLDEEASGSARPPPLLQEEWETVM
# Experiment: cAMP production in MC3T3-EI osteoblast-like cells (biological activity of PTH(1-34) derivatives)
# Type: cell-based
# Details: 0.01-100 nM derivative, room temperature 30 minutes, hPTH(1-34) standard = 1.00
# Experimental: The biological activity of the PTH (1-34) derivatives was evaluated by a modified version of the method reported by Shigeno et al. in The Journal of Biological Chemistry 263, 18369-18377 (1988). A culture solution (Hank's solution, containing 20 mM N-2-hydroxyethylpiperazine-N'-2-ethanesulfonic acid-(HEPES), 0.1% bovine serum albumin and 0.5 mM isobutylmethyl-xanthine) containing a 0.01, 0.1, 1, 10 or 100 nM derivative was added in an amount of 100 μl to a mouse cranial bone-derived osteoblast-like cell strain, MC3T3-EI cells, cultivated on a 96-well multiplate (Nunclon, Nunc), followed by reaction at room temperature for 30 minutes. After addition of 100 μl of 0.2N hydrochloric acid, the mixture was immersed in boiling water for 2.5 minutes, and cyclic adenosine monophosphate (cAMP) produced by a PTH receptor was extracted from the cells. The total cAMP in the culture solution and the cells was assayed using a commercial radioimmunoassay kit (cyclic AMP [^125 I] kit "Du Pont-Daiichi", Daiichi Kagaku Yakuhin).
row,SMILES,"Biological Activity, Represented by Relative Activity to hPTH(1-34)"
1,"CC[C@H](C)[C@H](NC(=O)[C@H](CCC(=O)O)NC(=O)[C@H](CO)NC(=O)[C@@H](NC(=O)[C@@H](N)CO)C(C)C)C(=O)N[C@@H](CCC(N)=O)C(=O)N[C@@H](CC(C)C)C(=O)N[C@@H](CCSC)C(=O)N[C@@H](Cc1c[nH]cn1)C(=O)N[C@@H](CC(N)=O)C(=O)N[C@@H](CC(C)C)C(=O)NCC(=O)N[C@@H](CCCCN)C(=O)N[C@@H](Cc1c[nH]cn1)C(=O)N[C@@H](CC(C)C)C(=O)N[C@@H](CCCCNC(N)=O)C(=O)N[C@@H](CO)C(=O)N[C@@H](CCSC)C(=O)N[C@@H](CCC(=O)O)C(=O)N[C@@H](CCCNC(=N)N)C(=O)N[C@H](C(=O)N[C@@H](CCC(=O)O)C(=O)N[C@@H](Cc1c[nH]c2ccccc12)C(=O)N[C@@H](CC(C)C)C(=O)N[C@@H](CCCNC(=N)N)C(=O)N[C@@H](CCCCN)C(=O)N[C@@H](CCC(N)=O)C(=O)N[C@@H](CC(C)C)C(=O)N[C@@H](CCC(N)=O)C(=O)N[C@@H](CC(=O)O)C(=O)N[C@H](C(=O)N[C@@H](Cc1c[nH]cn1)C(=O)N[C@@H](CC(N)=O)C(=O)N[C@@H](Cc1ccccc1)C(=O)O)C(C)C)C(C)C [[Hci^16,Gln^27]hPTH(1-34)] (H-SVSEIQLMHNLGKHL[hCit]SMERVEWLRKQLQDVHNF-OH)",1.54
2,"CC[C@H](C)[C@H](NC(=O)[C@H](CCC(=O)O)NC(=O)[C@H](CO)NC(=O)[C@@H](NC(=O)[C@@H](N)CO)C(C)C)C(=O)N[C@@H](CCC(N)=O)C(=O)N[C@@H](CC(C)C)C(=O)N[C@@H](CCSC)C(=O)N[C@@H](Cc1c[nH]cn1)C(=O)N[C@@H](CC(N)=O)C(=O)N[C@@H](CC(C)C)C(=O)NCC(=O)N[C@@H](CCCCN)C(=O)N[C@@H](Cc1c[nH]cn1)C(=O)N[C@@H](CC(C)C)C(=O)N[C@@H](CCCN)C(=O)N[C@@H](CO)C(=O)N[C@@H](CCSC)C(=O)N[C@@H](CCC(=O)O)C(=O)N[C@@H](CCCNC(=N)N)C(=O)N[C@H](C(=O)N[C@@H](CCC(=O)O)C(=O)N[C@@H](Cc1c[nH]c2ccccc12)C(=O)N[C@@H](CC(C)C)C(=O)N[C@@H](CCCNC(=N)N)C(=O)N[C@@H](CCCCN)C(=O)N[C@@H](CCC(N)=O)C(=O)N[C@@H](CC(C)C)C(=O)N[C@@H](CCC(N)=O)C(=O)N[C@@H](CC(=O)O)C(=O)N[C@H](C(=O)N[C@@H](Cc1c[nH]cn1)C(=O)N[C@@H](CC(N)=O)C(=O)N[C@@H](Cc1ccccc1)C(=O)O)C(C)C)C(C)C [[Orn^16,Gln^27]hPTH(1-34), [Orn^16,Gln^27]hPTH(1-45)] (H-SVSEIQLMHNLGKHL[Orn]SMERVEWLRKQLQDVHNF-OH)",1.82
3,CC[C@H](C)[C@H](NC(=O)[C@H](CCC(=O)O)NC(=O)[C@H](CO)NC(=O)[C@@H](NC(=O)[C@@H](N)CO)C(C)C)C(=O)N[C@@H](CCC(N)=O)C(=O)N[C@@H](CC(C)C)C(=O)N[C@@H](CCSC)C(=O)N[C@@H](Cc1c[nH]cn1)C(=O)N[C@@H](CC(N)=O)C(=O)N[C@@H](CC(C)C)C(=O)NCC(=O)N[C@@H](CCCCN)C(=O)N[C@@H](Cc1c[nH]cn1)C(=O)N[C@@H](CC(C)C)C(=O)N[C@H](C(=O)N[C@@H](CO)C(=O)N[C@@H](CCSC)C(=O)N[C@@H](CCC(=O)O)C(=O)N[C@@H](CCCNC(=N)N)C(=O)N[C@H](C(=O)N[C@@H](CCC(=O)O)C(=O)N[C@@H](Cc1c[nH]c2ccccc12)C(=O)N[C@@H](CC(C)C)C(=O)N[C@@H](CCCNC(=N)N)C(=O)N[C@@H](CCCCN)C(=O)N[C@@H](CCCCN)C(=O)N[C@@H](CC(C)C)C(=O)N[C@@H](CCC(N)=O)C(=O)N[C@@H](CC(=O)O)C(=O)N[C@H](C(=O)N[C@@H](Cc1c[nH]cn1)C(=O)N[C@@H](CC(N)=O)C(=O)N[C@@H](Cc1ccccc1)C(=O)O)C(C)C)C(C)C)[C@@H](C)O [[Thr^16]hPTH(1-34)],1.74
